This is an account of results in EP0097546A1, “Benzhydrylsulfinyl ethyl amines, process for their preparation and their use in therapy” (LABORATOIRE L. LAFON Société anonyme dite:, priority 1982, dated 1984).

Molecules are shown by their SMILES.

Holding throughout (format): in vivo
One data set relates to souris mâle. Put plainly: Toxicity, intraperitoneal route. The settings on record: male mouse, I.P. route. The protocol:
(§1) On a résumé ci-après les résultats des essais neuro- pshychopharmacologiques qui ont été ertrepris avec le CRL 40883 (produit de l'exemple 1). Dans ces essais le CRL 40883 en solution dans de l'eau distillée à pH 5 a été administré par voie intra- péritonéale sous un volume de 20 ml/kg chez la souris mâle et sous un volume de 5 ml/kg chez le rat mâle.
• Chez la souris mâle la DL-30 par voie I.P. du CRL 40883 est de l'ordre de 250 mg/kg.

A further data set has as its system souris. Nature of the data set: Global behaviour and reactivities in the mouse. To be noted: i.p. Here is the method:
as §1
(§2) • Des lots de 6 animaux sont observés avant, puis 15 minutes, 30 minutes, 1 h , 2 h , 3 h et 24 h après l'administration de CRL 40 883.

A further data set has as its system rat. Put plainly: Global behaviour and reactivities in the rat. To be noted: i.p. The protocol:
as §1, §2

Data set [1] relates to hypothermies induites par l'apomorphine. Put plainly: Antagonism of apomorphine-induced hypothermia. The settings on record: i.p. The protocol: as §1
Data set [2] has as its system hypothermies induites par la réserpine. Put plainly: Antagonism of reserpine-induced hypothermia. The settings on record: i.p. The protocol: as §1
Data set [3] concerns hypothermies induites par l'oxotrémorine. Nature of the data set: Antagonism of oxotremorine-induced hypothermia. To be noted: i.p. Here is the method: as §1
Data set [4] relates to stéréotypies amphétaminiques. Put plainly: Amphetamine stereotypies. To be noted: i.p. Here is the method:
as §1

Another data set relates to groupes de souris. Put plainly: Intergroup aggressiveness test. To be noted: groups of mice, i.p., doses 16 mg/kg and 64 mg/kg. The protocol:
as §1

In the data set on souris mâle, `CNCC[S+]([O-])C(c1ccccc1)c1ccccc1` (centres unmarked) [CRL 40883, chlorhydratede N-[2-(benzhydrylsulfinyl)-éthyl]-méthylamine] came in with a DL-30 of about 250 mg/kg. In addition, in the data set on souris (doses 64 mg/kg, 16 mg/kg, 4 mg/kg and 1 mg/kg, observed 15 min to 24 h), the “comportement et réactivités” value is listed as “n'entraîne pas de modifications sensibles du comportement et des réactivités”. The sédation result with souris (mainly at 128 mg/kg) is “sédation modérée”. In the data set on rat (32 mg/kg, lasting 30 minutes), the réactivité au toucher result is recorded as “hyporéactivité au toucher” and the tonus musculaire entry was “hypotonie musculaire”. In the data set on rat (doses 8 mg/kg, 2 mg/kg and 0,5 mg/kg), the symptômes result is recorded as “pas de symptômes particuliers”. In data set [1], the “antagonisme des hypothermies induites par l'apomorphine” value is given as “antagonisme”. In addition, the “antagonisme des hypothermies induites par la réserpine” value in data set [2] is recorded as “antagonisme”. For the same compound, the “antagonisme des hypothermies induites par l'oxotrémorine” value in data set [3] is recorded as “antagonisme”. Also, in data set [4], the “stéréotypies amphétaminiques” value is on record as “potentialisation des stéréotypies amphétaminiques”. Also, in the data set on groupes de souris, the nombre de combats result is recorded as “forte diminution du nombre de combats”.
